Measurements taken from patent US9066938B2, “GPBP-1 inhibition and its therapeutic use” (Fibrostatin S.L., priority 2012, dated 2015).
Structures can show the parent of a compound that is named as a salt.

How the values were obtained:
human recombinant GPBP-1 = molecular target: T1, human recombinant GPBP-1 (Homo sapiens, UniProt Q9Y5P4); experiment: GPBP-1 in vitro autophosphorylation (kinase) assay with [γ-32P]ATP; assay type: biochemical
T1 construct: made in house; host or cells: Pichia pastoris
T1 sequence (Q9Y5P4 1-624): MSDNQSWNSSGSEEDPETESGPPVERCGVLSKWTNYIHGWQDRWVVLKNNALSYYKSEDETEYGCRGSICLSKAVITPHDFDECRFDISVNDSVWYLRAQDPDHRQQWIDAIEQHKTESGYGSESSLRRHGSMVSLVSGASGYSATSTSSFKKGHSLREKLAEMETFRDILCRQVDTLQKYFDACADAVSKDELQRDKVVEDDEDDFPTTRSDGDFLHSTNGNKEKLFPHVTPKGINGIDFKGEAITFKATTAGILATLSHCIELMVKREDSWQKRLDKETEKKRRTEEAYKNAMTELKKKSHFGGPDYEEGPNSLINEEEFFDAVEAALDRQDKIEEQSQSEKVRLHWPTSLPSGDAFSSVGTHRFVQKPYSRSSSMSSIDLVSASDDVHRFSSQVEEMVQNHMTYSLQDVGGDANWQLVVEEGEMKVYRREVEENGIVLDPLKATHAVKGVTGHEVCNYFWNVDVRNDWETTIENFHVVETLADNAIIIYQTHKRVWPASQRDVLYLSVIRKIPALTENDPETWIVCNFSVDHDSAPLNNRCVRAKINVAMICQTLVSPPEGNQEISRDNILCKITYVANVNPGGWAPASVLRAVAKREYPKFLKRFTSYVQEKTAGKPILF
Source text: To explore the possibility that doxorubicin, an anti-tumor agent targeting topoisomerase II (Pommier et al. 2010), operates through GPBP-1, human recombinant GPBP-1 (Raya et al. 1999) was subjected to in vitro autophosphorylation in the presence or absence of doxorubicin and T12 (FIG. 1A).

[1] = molecular target: T2, recombinant human GPBP-1 produced in insect cells (Homo sapiens, UniProt Q9Y5P4); experiment: Affinity constants for GPBP-1 by the Benesi-Hildebrand method; assay type: binding
T2 construct: FLAG (N); made in house; host or cells: SF9 insect cells (baculovirus, pFastBac1)
T2 sequence (Q9Y5P4 1-624): T1 sequence (Q9Y5P4 1-624)
Description: FIG. 1. […] A, to assess the inhibitory activity of T12 and doxorubicin on GPBP-1 kinase activity and their synergism, approximately 200 ng of yeast FLAG-GPBP-1 from two different preparations with low and high specific activities were incubated with [γ-^32P]ATP in the absence (−) or presence (+) of the indicated compounds and concentrations. Mixtures were subjected to Western blot and autoradiographed (^32P). The levels of GPBP were further analyzed using anti-FLAG (WB). B, in the panel is shown affinity constants of the indicated compounds for recombinant human GPBP-1 produced in insect cells calculated by the Benesi-Hildebrand method. Recombinant yeast GPBP-1 was expressed in Pichia pastoris and affinity-purified as previously described (Raya et al. 1999, raya et al. 2000). To express and purify recombinant FLAG-GPBP-1 from SF9 insect cells, the cDNA of FLAG-GPBP-1 was cloned in the baculovirus expression vector pFastBac1. The plasmid was transformed into DH10Bac competent cells and the recombinant baculovirus was produced following manufacturer's recommendations (Bac-to-Bac™ Baculovirus Expression System, Invitrogen, Life Technologies). Baculovirus was used to infect SF9 cells and GPBP-1 in the supernatant of culture media was purified by affinity chromatography using anti-FLAG agarose (Sigma-Aldrich) following manufacturer's recommendations. GPBP-1 phosphorylation assays were performed as previously described (Raya et al. 1999).

[2] = tested on: cell cycle-related genes in A549 cells; experiment: Cell Cycle RT2 Profiler PCR Array in A549 cells; assay type: cell-based, human; settings: doxorubicin 1 μM or T12 50 μM, 24 h
Description: FIG. 6. T12 and doxorubicin activate cell cycle-related genes in a similar fashion. A549 cells were treated doxorubicin (1 μM) or T12 (50 μM) for 24 h. Total RNA was purified, reverse-transcribed and subjected to Cell Cycle RT^2 Profiler PCR Array. A, shown are logarithmic scatter plots of relative mRNA levels of treated vs untreated cells. […] B, shown are bar plots of the relative expression (RQ) of the over-expressed genes indicated in A. Results are shown in fold expression respect to untreated cells.
RNA was purified from cells using the Ilustra RNAspin Mini (GE Healthcare) and the cDNA was prepared using RT^2 First Strand™ cDNA kit (Qiagen). The cDNA from treated or untreated cells was used to screen the Cell Cycle RT^2 Profiler™ PCR Array for human (PAHS-020Z, Qiagen), following manufacturer's procedures (Qiagen). qPCR was performed using RT^2 SYBR® Green ROX™ qPCR Mastermix (Qiagen) and the StepOnePlus™ Real-Time PCR System (Applied Biosystems). qPCR data were analyzed using manufacturer software.

A549 xenografts = experiment: Mouse xenograft study with A549 tumors; assay type: in vivo, nude mice; settings: for tumor growth, single compound: doxorubicin 2.5 mg/kg per week i.p. or T12 20 mg/kg per day in drinking water, three weeks
Description: FIG. 11. T12 and doxorubicin are synergistic arresting growth of A549-based tumors. Nude mice bearing A549 xenografts were treated with the indicated compounds as indicated in Methods and Experimental Design. Indicated are the tumor size at the indicated times. […] FIG. 12. T12 and doxorubicin are synergistic necrotizing A549-based tumors. Tumor samples from mice used in FIG. 11 were fixed in formalin, paraffin-embedded, subjected to Masson's trichrome staining and observed by optical microscopy. Necrotic areas are indicated with asterisks. Shown are representative images. FIG. 13. […] Ten-week old nude mice (NMRi-Foxn1^nu/Foxn1^nu) (Janvier) were used for xenograft studies. Three-million A549 cells were suspended in 100 μL of culture medium, mixed with 200 μL Matrigel (BD) and subcutaneously injected on the flank of individual mouse (n=40). Tumor size was periodically measured with a digital caliper and volumes were calculated with the formula […]. […] After three weeks mice were sacrificed, tumor xenografts excised and either fixed with formalin and paraffin-embedded or frozen and RNA extracted. Sections of paraffin-embedded tumor samples were subjected to hematoxylin and eosin and Masson's trichrome standard stainings. Frozen tumor samples were ground with a mortar in liquid nitrogen and total RNA extracted as above indicated.

[3] = tested on: GPBP expression in A549 cells; experiment: GPBP expression in A549 cells after treatment; assay type: cell-based, human
Description: A549 cells treated for 4 weeks with 1 μM doxorubicin (A549-DR). Fifty μg of cellular lysates of A549 and A549-DR cells were analyzed by Western blot to assess the levels of GPBP using GPBP-specific mAb N27. Tubulin was stained with specific antibodies and used as loading control.
This was assessed by selecting A549 cells with doxorubicin and analyzed GPBP expression by Western blot (FIG. 15).

[4] = 2.5 mg/kg/week doxorubicin and 20 mg/kg/day T12, three weeks

COc1ccc(-c2ccc(-c3cccc(C)c3)c(C)c2)c(CCC(=O)O)c1 [T12, 3-[4″-methoxy-3,2′-dimethyl-(1,1′;4′,1″)terphenyl-2″-yl] propionic acid]
inhibitory activity on GPBP-1 autophosphorylation in combination with doxorubicin (human recombinant GPBP-1; T12 plus doxorubicin): synergistic | affinity / manner of binding to GPBP-1 [1]: light-moderated affinity | expression of CDKN1A (p21), GADD45A, MDM2 and SERTAD1 [2]: up-regulated | matrix metalloproteinase 10 (MMP-10) expression in tumors, combined treatment (A549 xenografts; 2.5 mg/kg/week doxorubicin and 20 mg/kg/day T12, qPCR): lower levels | necrotic areas within the tumors, combined treatment (A549 xenografts; [4]): more extensive | tumor growth, combined administration (A549 xenografts; [4]): tumor arrest | tumor growth, single compound (A549 xenografts): did not impaired tumor growth | GPBP expression in A549 cells in response to treatment [3]: no evidence for increased expression of GPBP

COc1cccc2c1C(=O)c1c(O)c3c(c(O)c1C2=O)C[C@@](O)(C(=O)CO)C[C@@H]3O[C@H]1C[C@H](N)[C@H](O)[C@H](C)O1 [doxorubicin, doxorubicin hydrochloride, reference compound]
inhibition of GPBP-1 autophosphorylation (human recombinant GPBP-1; compound alone): efficiently inhibited | affinity / manner of binding to GPBP-1 [1]: irreversible | binding to GPBP-1, fold stronger than T12 (affinity constants) ([1]; relative to T12): ~10^5 fold | expression of CDKN1A (p21), GADD45A, MDM2 and SERTAD1 [2]: up-regulated | tumor growth, single compound (A549 xenografts): did not impaired tumor growth | GPBP expression in A549 cells in response to treatment [3]: increased GPBP cell expression
